Laboratory results as given in ChEMBL document CHEMBL5131477, “Design, synthesis and biological evaluation of 1,3,4-triazole-3-acetamide derivatives as potent neuraminidase inhibitors” (Bioorg Med Chem Lett, 2022).

Experiment: Inhibition of Influenza A virus H5N1 Neuraminidase

COc1cc(F)ccc1NC(=O)CSc1nnc(-c2ccco2)[nH]1
IC50: 1.8 µM

COc1cccc(CCNC(=O)CSc2nnc(-c3ccco3)[nH]2)c1
IC50: 9.04 µM

CCc1ccc(NC(=O)CSc2nnc(-c3ccco3)[nH]2)cc1
IC50: 0.11 µM

O=C(CSc1nnc(-c2ccco2)[nH]1)Nc1cccc(Cl)c1
IC50: 4.33 µM

COc1ccc(C)cc1NC(=O)CSc1nnc(-c2ccco2)[nH]1
IC50: 28.5 µM

COc1cccc(NC(=O)CSc2nnc(-c3ccco3)[nH]2)c1
IC50: 0.24 µM

CCC(CC)O[C@@H]1C=C(C(=O)O)C[C@H](N)[C@H]1NC(C)=O [OSELTAMIVIR CARBOXYLATE]
IC50: 0.1 µM

COc1ccc(OC)c(NC(=O)CSc2nnc(-c3ccco3)[nH]2)c1
IC50: 55.3 µM

O=C(CSc1nnc(-c2ccco2)[nH]1)NCCc1ccc2c(c1)OCO2
IC50: 1.67 µM

COc1ccc(C(=O)NNC(=O)CSc2nnc(-c3ccco3)[nH]2)cc1
IC50: 12.2 µM

COc1ccc(NC(=O)CSc2nnc(-c3ccco3)[nH]2)cc1OC
IC50: 1.43 µM

O=C(CSc1nnc(-c2ccco2)[nH]1)NCCc1cccc(F)c1
IC50: 8.06 µM
